# Assay results: patent US20030064380A1, “Anergy-regulated molecules” (The Center For Blood Research, Inc., priority 2001, published 2003)
# System: D5 or primary T cells
# Assay: apoptosis assays of ionomycin-stimulated T cells
# Type: cell-based, murine
# Settings: several independent assays
# Procedure: Apoptosis was detected by the Tunel method using the In situ Cell Death Detection kit (Boheringer) following manufacture's instructions. Stained cells were analyzed on a FACSCAN (Beckton-Dickinson).
# Of particular interest was the fact that several of the ionomycin-induced genes encoded proteins involved (or potentially involved) in protein degradation. Candidate genes in this category included caspase-3, SOCS-2 and Traf5 (FIG. 6B). Caspase-3 is an enzyme for which commercial reagents are readily available. Tests were conducted to determine whether caspase-3 was activated and functional in ionomycin-pretreated T cells. […] Further work will be necessary to establish whether proteolysis occurs in specific intracellular compartments relevant to TCR signal transduction or whether other signaling proteins are substrates for proteolysis in anergic cells.
compound,measurement,value
"C[C@H](CCC(=O)O)C[C@H](C)C[C@H](C)C(=O)/C=C(\O)[C@H](C)C[C@H](C)C/C=C/[C@@H](C)[C@@H](O)[C@@H](C)[C@@H](O)C[C@@H]1CC[C@@](C)([C@H]2CC[C@@](C)([C@@H](C)O)O2)O1 [Ionomycin, ionomycin]",apoptosis,no detectable apoptosis
